Among the data in patent publication US11873291B2, “Quinoline cGAS antagonist compounds” (ImmuneSensor Therapeutics, Inc., priority 2020, dated 2024) are IC50 values, retold here.

In the first test the target is T1, recombinant human cGAS (aa147-522) (Homo sapiens, UniProt Q8N884).
T1 construct: recombinant human cGAS (aa147-522); His6-SUMO (cleaved yes); made in house; host or cells: E. coli BL21/pLys
T1 sequence (Q8N884 147-522): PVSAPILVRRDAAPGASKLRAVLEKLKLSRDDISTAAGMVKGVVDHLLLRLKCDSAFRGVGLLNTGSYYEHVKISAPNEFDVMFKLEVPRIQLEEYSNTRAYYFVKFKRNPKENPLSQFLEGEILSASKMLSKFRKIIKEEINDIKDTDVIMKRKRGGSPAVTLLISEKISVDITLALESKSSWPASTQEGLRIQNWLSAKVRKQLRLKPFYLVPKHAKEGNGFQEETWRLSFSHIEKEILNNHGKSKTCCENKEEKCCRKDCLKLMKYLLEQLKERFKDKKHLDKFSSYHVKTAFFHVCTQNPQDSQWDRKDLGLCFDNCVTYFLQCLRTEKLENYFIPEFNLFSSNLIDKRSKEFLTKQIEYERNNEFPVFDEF
Put plainly: In vitro inhibition assay of cGAS activity (ATP consumption, KinaseGlo Max). In kind it is biochemical. The following applies: Table 2, read-out: cGAS Inhibition Results IC50. The method, boiled down:
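IC50 came from plotting % ATP consumption against log compound concentration, with leftover ATP detected by KinaseGlo Max chemiluminescence. Reactions ran 20 min at 37 °C with 1.5 μg/mL human cGAS (aa147-522), 6.6 μM ATP, 0.1 mM GTP and 0.01 mg/mL DNA at pH 7.5.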
Background: In Kinase-Glo more light means more ATP remaining.
Regarding `O=C(O)[C@@H]1[C@@H](O)CCN1c1cc(-n2ccnc2)c2ccc(Cl)c(Cl)c2n1` [I-345], the IC50 (commonly the midpoint of a concentration-inhibition curve) is < 2 µM.
Still for that read-out and setting: the figure for `C[C@@H](CO)N(C)c1cc(-n2ccnc2)c2ccc(Cl)c(Cl)c2n1` [I-241] is < 2 µM; for `NC(=O)c1cccc(-c2cc(-n3ccnc3)c3ccc(Cl)cc3n2)c1` [I-7, 3-(7-chloro-4-(1H-imidazol-1-yl)quinolin-2-yl)benzamide] it is 2 to 30 µM; for `CC(C)[C@H](CS(N)(=O)=O)Nc1cc(-n2ccnc2)c2ccc(Cl)c(Cl)c2n1` [I-209] it is > 30 µM.
Same read-out and setting: with `CC(C)(C)OC(=O)NC[C@@H]1CCCN1c1cc(-n2ccnc2)c2ccc(Cl)c(Cl)c2n1` [I-152] the figure was 2 to 30 µM; with `OC[C@@H]1CN(c2cc(-c3cn[nH]c3)c3ccc(Cl)c(Cl)c3n2)CCO1` [I-372], < 2 µM; with `C[C@H](CO)N(C)c1cc(-n2ccnc2)c2ccc(Cl)c(Cl)c2n1` [I-242], < 2 µM.
Still for that read-out and setting: the figure for `OC[C@@H]1CCCN1c1cc(-c2cn[nH]c2)nc2c(Cl)c(Cl)ccc12` [I-298] is > 30 µM; for `O=C(O)[C@@H]1C[C@@H](OCc2ccccc2)CN1c1cc(-c2cn[nH]c2)c2ccc(Cl)c(Cl)c2n1` [I-438] it is 2 to 30 µM; for `CC(C)[C@H](CS(=O)(=O)O)Nc1cc(-n2ccnc2)c2ccc(Cl)cc2n1` [I-163] it is > 30 µM.
With `O=P(O)(O)OCC1CCCN(c2cc(-n3ccnc3)c3ccc(Cl)c(Cl)c3n2)C1` (centres unmarked) [I-113, (1-(7,8-dichloro-4-(1H-imidazol-1-yl)quinolin-2-yl)piperidin-3-yl)methyl dihydrogen phosphate], the 50% inhibitory concentration (IC50) is < 2 µM.
Same read-out and setting: with `OCc1cn(-c2cc(-c3ccccc3)nc3cc(Cl)ccc23)cn1` [I-63] the figure was > 30 µM.
Regarding `Cc1cc(N2CCNC(=O)C2)c2ccc(Cl)c(Cl)c2n1` [I-302], the half-inhibitory concentration (IC50) was > 30 µM.
On the same count and under the same terms, the figure for `CC(C)[C@H](NC(=O)C[C@@H]1CCCN1c1cc(-n2ccnc2)c2ccc(Cl)c(Cl)c2n1)C(=O)O` [I-338] is < 2 µM.
On the same count and under the same terms, the figure for `O=C(O)C1CC(O)CN(c2cc(-n3ccnc3)c3ccc(Cl)cc3n2)C1` (centres unmarked) [I-135] is > 30 µM; for `COc1c(Br)ccc2c(-n3ccnc3)cc(-c3cccc(C(=O)O)c3)nc12` [I-48, 3-(7-Bromo-4-(1H-imidazol-1-yl)-8-methoxyquinolin-2-yl)benzoic acid] it is < 2 µM.
The same measure, in the same setting: the figure for `O=C(O)c1cc(-c2cc(-n3ccnc3)c3ccc(Cl)c(Cl)c3n2)ccc1O` [I-42, 5-(7,8-dichloro-4-(1H-imidazol-1-yl)quinolin-2-yl)-2-hydroxybenzoic acid] is < 2 µM; for `OC[C@H](Nc1cc(-n2ccnc2)c2ccc(Cl)c(Cl)c2n1)c1ccccc1` [I-247] it is 2 to 30 µM.
For `CN(CCNS(=O)(=O)c1cccnc1)c1cc(-n2ccnc2)c2ccc(Cl)cc2n1` [I-231], the IC50 lay in the range of 2 to 30 µM.
The same measure, in the same setting: the figure for `Clc1ccc2c(-c3cn[nH]c3)cc(NCC3COCCN3)nc2c1Cl` (centres unmarked) [I-217] is > 30 µM; for `O=C(NO)[C@@H]1CCCN(c2cc(-n3ccnc3)c3ccc(Cl)cc3n2)C1` [I-137, (R)-1-(7-chloro-4-(1H-imidazol-1-yl)quinolin-2-yl)-N-hydroxypiperidine-3-carboxamide] it is 2 to 30 µM.
Still for that read-out and setting: the figure for `O=C(O)c1cc(-c2cc(-n3ccnc3)c3ccc(Cl)cc3n2)cs1` [I-55] is < 2 µM; for `O=C(O)c1cc(C(=O)O)cc(-c2cc(-n3ccnc3)c3ccc(Cl)cc3n2)c1` [I-28] it is < 2 µM; for `CC(=O)NCCN(C)c1cc(-n2ccnc2)c2ccc(Cl)cc2n1` [I-236] it is 2 to 30 µM.
Still for that read-out and setting: with `NS(=O)(=O)N1CCOC(CNc2cc(-n3ccnc3)c3ccc(Cl)c(Cl)c3n2)C1` (centres unmarked) [I-219, 2-(((7,8-dichloro-4-(1H-imidazol-1-yl)quinolin-2-yl)amino)methyl)morpholine-4-sulfonamide] the figure was < 2 µM; with `Clc1ccc2c(-n3ccnc3)cc(OCc3ccccc3)nc2c1` [I-277, 2-(benzyloxy)-7-chloro-4-(1H-imidazol-1-yl)quinoline], 2 to 30 µM.
In the case of `O=C(O)[C@@H]1CN(c2cc(-c3cn[nH]c3)c3ccc(Cl)c(Cl)c3n2)CCO1` [I-327], the IC50 is < 2 µM.
The same measure, in the same setting: with `O=C(O)C1CCCCC1Nc1cc(-n2ccnc2)c2ccc(Cl)cc2n1` (centres unmarked) [I-333] the figure was > 30 µM; with `O=C(O)C1CN(c2cc(-n3ccnc3)c3ccc(Cl)c(Cl)c3n2)CCO1` (centres unmarked) [I-91], < 2 µM.
On the same count and under the same terms, the figure for `O[C@@H]1CCN(c2cc(-n3ccnc3)c3ccc(Cl)c(Cl)c3n2)C1` [I-145] is < 2 µM; for `COC(=O)C1CCCN(c2cc(-n3ccnc3)c3ccc(Cl)cc3n2)C1` (centres unmarked) [I-126] it is 2 to 30 µM.
Same read-out and setting: with `Clc1ccc2c(-n3ccnc3)cc(NCCN3CCOCC3)nc2c1` [I-354] the figure was > 30 µM; with `COc1ccc(-c2cc(-n3ccnc3)c3ccc(Cl)c(Cl)c3n2)cc1O` [I-41], < 2 µM.
With `COC(=O)c1ccc(-c2cc(-n3ccnc3)c3ccc(Cl)cc3n2)cc1` [I-3], the IC50 was > 30 µM.
For `O=S(=O)(NC1CCCN(c2cc(-n3ccnc3)c3ccc(Cl)cc3n2)C1)c1cccnc1` (centres unmarked) [I-102], the IC50 fell in the range of 2 to 30 µM.
On the same count and under the same terms, with `NS(=O)(=O)CC1CCCN1c1cc(-n2ccnc2)c2ccc(Cl)c(Cl)c2n1` (centres unmarked) [I-148] the figure was < 2 µM; with `CN(C)C(=O)CCN(C)c1cc(-c2cn[nH]c2)c2ccc(Cl)c(Cl)c2n1` [I-197], < 2 µM; with `CC(CNc1cc(-n2ccnc2)c2ccc(Cl)c(Cl)c2n1)S(N)(=O)=O` (centres unmarked) [I-210], 2 to 30 µM.
On the same count and under the same terms, with `O=C(O)C1(O)CCCN(c2cc(-n3ccnc3)c3ccc(Cl)c(Cl)c3n2)C1` (centres unmarked) [I-124] the figure was < 2 µM; with `O=C(O)[C@@H]1C[C@@H](F)CN1c1cc(-c2cn[nH]c2)c2ccc(Cl)c(Cl)c2n1` [I-430], < 2 µM.
Still for that read-out and setting: the figure for `O=C1CCN(c2cc(-n3ccnc3)c3ccc(Cl)c(Cl)c3n2)CCN1` [I-88] is 2 to 30 µM; for `O=C(O)c1cncc(-c2cc(-n3ccnc3)c3ccc(Cl)cc3n2)c1` [I-32] it is < 2 µM.
As to `Clc1ccc2c(-n3ccnc3)cc(Nc3ccccc3)nc2c1` [I-355], the IC50 was in the range of 2 to 30 µM.
Turning to `Clc1ccc2c(-c3cn[nH]c3)cc(NCCN3CCOCC3)nc2c1Cl` [I-213], the IC50 was 2 to 30 µM.
Take `CN(CCO)c1cc(-n2ccnc2)c2ccc(Cl)c(Cl)c2n1` [I-238]: the IC50 was < 2 µM.

Still in this test, the particulars now being: Table 3, read-out: cGAS Inhibition Results IC50.
In the case of `O=C(O)[C@@H]1[C@@H](F)CCN1c1cc(-n2ccnc2)c2ccc(Cl)c(Cl)c2n1` [I-651], the concentration for half-maximal inhibition (IC50) was < 2 µM.
Still for that read-out and setting: with `O=C(C[C@@H]1CCCN1c1cc(-n2ccnc2)c2ccc(Cl)c(Cl)c2n1)NS(=O)(=O)C(F)F` [I-540] the figure was < 2 µM; with `O=C(O)COC[C@@H]1[C@@H](O)CCN1c1cc(-n2ccnc2)c2ccc(Cl)c(Cl)c2n1` [I-697], < 2 µM.
The same measure, in the same setting: with `COc1cccc2c(-c3cn[nH]c3)cc(N3CCC[C@H]3COCCC(=O)O)nc12` [I-859] the figure was 2 to 30 µM.
On the same count and under the same terms, with `O=C(O)[C@@H]1SCCN1c1cc(-n2ccnc2)c2ccc(Cl)c(Cl)c2n1` [I-486] the figure was < 2 µM; with `COC(=O)C[C@@H]1CCCN1c1cc(-n2ccnc2)c2ccc(Cl)c(Cl)c2c1` [I-572, methyl (S)-2-(1-(7,8-dichloro-4-(1H-imidazol-1-yl)naphthalen-2-yl)pyrrolidin-2-yl)acetate], < 2 µM.
In the case of `CN(CCN(Cc1cccc(C(=O)O)c1)S(C)(=O)=O)c1cc(-n2ccnc2)c2ccc(Cl)c(Cl)c2n1` [I-636, 3-((N-(2-((7,8-dichloro-4-(1H-imidazol-1-yl)quinolin-2-yl)(methyl)amino)ethyl)methylsulfonamido)methyl)benzoic acid], the IC50 was < 2 µM.
The same measure, in the same setting: with `COC(=O)[C@@H]1C[C@@H](O)CN1c1cc(-n2ccnc2)c2ccc(Cl)c(Cl)c2n1` [I-472] the figure was 2 to 30 µM.
Turning to `O=C(O)c1ccc(OC[C@@H]2CCCN2c2cc(-n3ccnc3)c3ccc(Cl)c(Cl)c3n2)cc1` [I-737], the IC50 was < 2 µM.
With `CN(CCNC(=O)CCC(=O)O)c1cc(-n2ccnc2)c2ccc(Cl)c(Cl)c2n1` [I-616], the IC50 is < 2 µM.
The same measure, in the same setting: with `CN(CCNC(=O)C1CCC(C(=O)O)C1)c1cc(-n2ccnc2)c2ccc(Cl)c(Cl)c2n1` (centres unmarked) [I-615] the figure was 2 to 30 µM; with `CN(CCNS(=O)(=O)c1ccc(C(=O)O)cc1)c1cc(-n2ccnc2)c2ccc(Cl)c(Cl)c2n1` [I-612], 2 to 30 µM.
Same read-out and setting: the figure for `CN(CCC(=O)O)C(=O)C[C@@H]1CCCN1c1cc(-n2ccnc2)c2ccc(Cl)c(Cl)c2n1` [I-525] is < 2 µM; for `FC(F)(F)[C@@H]1CCCN1c1cc(-n2ccnc2)c2ccc(Cl)c(Cl)c2n1` [I-496] it is 2 to 30 µM; for `COC(=O)[C@@H]1C[C@H](O)CN1c1cc(-n2ccnc2)c2ccc(Cl)c(Cl)c2n1` [I-459] it is 2 to 30 µM.
The same measure, in the same setting: with `CC12CN(c3cc(-n4ccnc4)c4ccc(Cl)c(Cl)c4n3)C(C(=O)O)(C1)C2` [I-475] the figure was 2 to 30 µM; with `O=C(O)C1CCCCN1C(=O)[C@@H]1CCCN1c1cc(-n2ccnc2)c2ccc(Cl)c(Cl)c2n1` (some centres unmarked) [I-547], 2 to 30 µM; with `CN(CCNS(=O)(=O)c1cccc(C(=O)O)c1)c1cc(-n2ccnc2)c2ccc(Cl)c(Cl)c2n1` [I-623], 2 to 30 µM.
Take `O=C(NC[C@@H]1CCCN1c1cc(-n2ccnc2)c2ccc(Cl)c(Cl)c2n1)c1cc(O)no1` [I-641]: the IC50 was < 2 µM.
With `COC(=O)[C@@H]1[C@H](OC)CCN1c1cc(-n2ccnc2)c2ccc(Cl)c(Cl)c2n1` [I-647], the IC50 lay in the range of 2 to 30 µM.
The same measure, in the same setting: the figure for `CN(CC(=O)NCCC(=O)O)c1cc(-n2ccnc2)c2ccc(Cl)c(Cl)c2n1` [I-562] is < 2 µM.
Consider `CN(CCNC(=O)c1cccc(O)c1)c1cc(-n2ccnc2)c2ccc(Cl)c(Cl)c2n1` [I-619], for which the IC50 lay in the range of 2 to 30 µM.
Still for that read-out and setting: with `O=C1CC2CCCC(C1)N2c1cc(-n2ccnc2)c2ccc(Cl)c(Cl)c2n1` [I-491] the figure was < 2 µM.
